Assay results taken from PubChem BioAssay AID488890 (Southern Research Specialized Biocontainment Screening …, 2010).
Inconclusive results are not listed. Activity calls are given as the source filed them. No rule for the calls is given here.

What follows are compounds tested on Mycobacterium tuberculosis non-replicating, growth inhibition (assay: growth inhibition of non-replicating M. tuberculosis (AID 488890)).
For `O=C(NC1CCCCC1)c1nc2c(nnn2Cc2ccccc2Cl)c(=O)[nH]1`, the IC50 was 3.72 µM. `Cc1csc(=Nc2cccnc2)n1CC1CCCCC1` was tested, and the IC50 was 17.5 µM (inactive). `CN1CCN(c2ccc(NC(=O)c3ccc(-c4ccc(Br)cc4)o3)cc2)CC1` showed an IC50 of 4.06 µM. With `CCc1cccc(OCCCn2ccnc2)c1` the IC50 was 18.7 µM (inactive). `CCOC(=O)c1cc(-c2c(Cl)cccc2Cl)no1` gave an IC50 of 2.22 µM. With `CCOC(=O)C(C)(C)n1nnc(-c2ccc([N+](=O)[O-])cc2)n1` the IC50 was 14.3 µM (inactive). With `Nc1ccc2nc3c(c(Cl)c2c1)CCCC3` the IC50 was 13.4 µM (inactive). `Oc1ccccc1-c1nnc(COc2ccccc2)o1` was tested, and the IC50 was 11.2 µM (inactive). In the case of `CC(=O)N1N=C(c2ccccc2)OC1c1ccc([N+](=O)[O-])s1` (stereo not drawn), the IC50 is reported as 13.4 µM (inactive). With `CCOC(=O)CN1NC2(CCC(C)CC2)NC1=S` (stereo not drawn) the IC50 was 15.2 µM (inactive). `CCOc1ccc(OCC(=O)Nc2nccs2)cc1` showed an IC50 of 7.75 µM. With `COc1ccccc1C1=NOC(COC(=O)c2ccc([N+](=O)[O-])cc2)C1` (stereo not drawn) the IC50 was 18.8 µM (inactive). `CCOC(=O)COn1c2c(c3c4no[n+]([O-])c4ccc31)CCCC2` was tested, and the IC50 was 1.13 µM. With `N=c1oc2ccccc2cc1C(=O)NC1CCCCCC1` the IC50 was 7.31 µM. With `O=[N+]([O-])c1ccc(/C=N/NS(=O)(=O)c2ccc(Cl)cc2)o1` the IC50 was 14.7 µM (inactive). With `O=C(Nc1sc2c(c1C(=O)O)CCCC2)c1ccc(F)cc1` the IC50 was 24.3 µM (inactive). For `O=C(O)CCCCCN1C(=O)/C(=C\c2ccncc2)SC1=S`, the IC50 was 11.2 µM (inactive). With `Cc1ccc(-n2sc3ccccc3c2=O)cc1` the IC50 was 14.3 µM (inactive). `COc1cc(Cl)cc(/C=N/NC(N)=O)c1O` was tested, and the IC50 was 10.2 µM (inactive). Work on `O=C(NNc1ccc([N+](=O)[O-])cc1)c1ccccc1Cl` yielded an IC50 of 9.32 µM. For `Cc1cc(C)n(-c2nc(NCCN(C)C)c3c4c(sc3n2)CCCC4)n1`, the IC50 was 9.66 µM. In the case of `Oc1ccccc1/C=N/Nc1nc2ccccc2o1`, the IC50 is reported as 0.19 µM. Compound `COc1ccccc1OCCN1CSC(=S)N(C)C1` has an IC50 of 8.14 µM. With `O=C(O)COc1ccc2occ(C(=O)c3ccccc3)c2c1` the IC50 was 6.46 µM. In the case of `COc1ccccc1N=Cc1nc(-c2ccccc2)oc1OC(C)=O`, the IC50 is reported as 19.6 µM (inactive). `CC(C)OC(=O)CCCCCN1C(=O)CSC1=S` showed an IC50 of 1.94 µM. `Cc1noc2ncnc(Sc3ccc(Br)cc3)c12` gave an IC50 of 6.24 µM. With `Cc1ccc(C(=O)N/N=C\c2ccc[nH]2)cn1` the IC50 was 16.9 µM (inactive). For `O=C(Nc1cccc(Cl)c1)C1COc2ccccc2O1` (stereo not drawn), the IC50 was 7.86 µM. In the case of `CCCN1C(=O)SC(CC(=O)Nc2ccccc2)C1=O` (stereo not drawn), the IC50 is reported as 17.5 µM (inactive). With `CC1CCN(C(=O)COC(=O)CCc2c[nH]c3ccccc23)CC1` the IC50 was 12.8 µM (inactive). With `Cc1cc(C(=O)N/N=C/c2ccc([N+](=O)[O-])s2)n[nH]1` the IC50 was 3.31 µM. Compound `Cc1ccc(C(=O)OCC(=O)N2CCCCCC2)c(O)c1` has an IC50 of 8.95 µM. `COc1cc(/C=N/NC(=O)c2ccncc2)ccc1OC(=O)c1cccc(F)c1` showed an IC50 of 3.53 µM. With `CCCn1c(=O)c(C(=O)N/N=C/c2ccccc2F)c(O)c2ccccc21` the IC50 was 13.3 µM (inactive). Work on `CCC(=O)c1ccc(OCC(=O)OCC(=O)c2cc(C)n(C3CC3)c2C)cc1` yielded an IC50 of 7.97 µM. In the case of `CN1CCN(/N=C/c2ccc(-c3ccc([N+](=O)[O-])cc3Cl)o2)CC1`, the IC50 is reported as 26.9 µM (inactive). `CC(C)NC(=O)C1COc2ccccc2O1` (stereo not drawn) was tested, and the IC50 was 36.5 µM (inactive). For `COc1ccc(O)c(C(=O)CC(=O)c2ccc(F)cc2)c1`, the IC50 was 17.2 µM (inactive). `O=C(CCNc1cccc(Cl)c1)c1cccs1` was tested, and the IC50 was 11 µM (inactive). With `O=C(N/N=C/c1ccccc1O)c1cccc(C(F)(F)F)c1` the IC50 was < 0.1 µM. Work on `CCOC(=O)COc1cc(O)c2c(=O)cc(-c3ccccc3)oc2c1` yielded an IC50 of 0.44 µM. For `CC(=O)c1cccc(NC(=O)C2COc3ccccc3O2)c1` (stereo not drawn), the IC50 was 24 µM (inactive). In the case of `Cc1nc(Cl)nc(N(C)c2ccccc2)c1[N+](=O)[O-]`, the IC50 is reported as 9.3 µM. In the case of `CC(C)(C)Sc1ccc2nc3c(n2c1)CCCC3`, the IC50 is reported as 9.32 µM. `CCOc1ccc(Nc2cc(C)nc(-n3nc(C)cc3C)n2)cc1` gave an IC50 of 3.32 µM. For `CCOC(=O)C1CCN(c2nc3cc(OC)ccc3cc2C#N)CC1`, the IC50 was 11.1 µM (inactive). `Cc1cnc(NC(=O)c2ccccn2)s1` was tested, and the IC50 was 8.53 µM. `Cc1cccnc1NC(=O)COc1ccc2oc3c(c2c1)CCCC3` was tested, and the IC50 was 9.41 µM. With `COC(=O)COc1ccc2c(=O)c(Oc3ccccc3)c(C)oc2c1` the IC50 was 1.7 µM. Compound `CCOC(=O)COc1c(-c2ccc(OC)cc2)oc2ccccc2c1=O` has an IC50 of 4.43 µM. In the case of `O=C(OCC(=O)N1CCN(c2ccccc2)CC1)c1ccc(Cl)cc1[N+](=O)[O-]`, the IC50 is reported as 14.4 µM (inactive). `O=C(CCS(=O)(=O)c1ccccc1)Nc1nc(-c2ccccn2)cs1` was tested, and the IC50 was 11.1 µM (inactive). `Cc1c(C(=O)NNC(=O)c2csc(N3CCOCC3)n2)oc2ccccc12` showed an IC50 of 7.63 µM. Compound `O=[N+]([O-])c1ccc(CN2CCN(c3ccc(F)cc3)CC2)o1` has an IC50 of 0.45 µM. In the case of `Cc1cccc(Cn2ccc(NC(=O)c3ccc4c(c3)OCO4)n2)c1`, the IC50 is reported as 4.51 µM. Work on `COc1ccc(C)c2sc(NC(=O)CCS(=O)(=O)c3ccccc3)nc12` yielded an IC50 of 6 µM. `COc1ccc(OC(=O)C2CC(=O)N(c3ccc(C)cc3)C2)cc1` (stereo not drawn) showed an IC50 of 9.65 µM. `N#CC(C#N)=c1ccc2c(c1)NC1(CCCCC1)N=2` was tested, and the IC50 was 5.71 µM. `CCOC(=O)CNC(=O)N1c2ccccc2Sc2ccccc21` was tested, and the IC50 was 4.81 µM. Work on `COc1cccc2cc(-c3nc4ccccc4o3)c(=O)oc12` yielded an IC50 of 7.31 µM. `CCOc1ccc(-c2nnc(NC(=O)c3ccc(OCC(C)C)c(OC)c3)o2)cc1` was tested, and the IC50 was 24.1 µM (inactive). With `CC(C)Cn1c(N)c(C(=O)COC(=O)c2cnc(Cl)c(Cl)c2)c(=O)n(C)c1=O` the IC50 was 12 µM (inactive). Work on `Nc1ccc(Nc2ccccc2)cc1` yielded an IC50 of 6 µM. `Cc1ccc(CNCc2cc(Cl)ccc2O)cc1` was tested, and the IC50 was 12.8 µM (inactive). For `CCOc1cccc2cc(C(=O)NCc3ccccc3)c(=N)oc12`, the IC50 was 10.2 µM (inactive). In the case of `O=C(CCN1CCN(C/C=C/c2ccccc2)CC1)Nc1ccc(Cl)cc1`, the IC50 is reported as 18.8 µM (inactive). With `Cc1cccc(OCCN2CSC(=S)N(C)C2)c1` the IC50 was 16.4 µM (inactive). In the case of `Cc1ccnc(NC(=O)COc2ccc3c(c2)CCC3)c1`, the IC50 is reported as 1.7 µM. `O=C(Nc1nnc(-c2ccc(Br)cc2)o1)c1ccco1` was tested, and the IC50 was 11.4 µM (inactive). In the case of `O=C(Nc1ccccc1)c1ccc(Br)o1`, the IC50 is reported as 14 µM (inactive). With `COc1ccc(C(=O)COC(=O)c2ccccc2O)c(OC)c1` the IC50 was 1.46 µM. With `Cc1ccc(/C=C2\SC(N3CCCC3)=NC2=O)cc1` the IC50 was 6.15 µM. `CC1CC(C)CN(C(=O)COC(=O)c2ccc([N+](=O)[O-])o2)C1` (stereo not drawn) gave an IC50 of 5.18 µM. Work on `Cc1ccc(C)c(-c2nnc(NC(=O)c3ccco3)o2)c1` yielded an IC50 of 0.66 µM. For `O=C(CCC1CCCCC1)NCc1cccs1`, the IC50 was 0.27 µM. For `CCc1cc(OCCCCNCc2ccccc2)ccc1Cl`, the IC50 was 11.3 µM (inactive). In the case of `N#CC(C(=O)NCc1ccco1)c1nc2ccccc2nc1N1CCOCC1` (stereo not drawn), the IC50 is reported as 15.9 µM (inactive). With `Nc1ccc2cc(Br)ccc2c1` the IC50 was 0.44 µM. Work on `CC(C)(C)NCc1cc(Br)ccc1OCc1cccs1` yielded an IC50 of 9.07 µM. `O=C(CCCSc1nc2ccccc2s1)NCc1ccco1` was tested, and the IC50 was 10.7 µM (inactive). `O=[N+]([O-])c1ccc(CSc2nnc(-c3cccnc3)o2)cc1` gave an IC50 of 0.81 µM. `O=c1c(O)c(-c2cccs2)oc2ccc(Cl)cc12` gave an IC50 of 1.08 µM. Compound `CN1/C(=C\C(=O)COC(=O)C2COc3ccccc3O2)C(C)(C)c2ccccc21` (stereo not drawn) has an IC50 of 5.79 µM. `c1ccc(-c2ccccc2OCCCCn2ccnc2)cc1` was tested, and the IC50 was 33.5 µM (inactive). Compound `O=C(NC(=S)Nc1ccc(F)cc1)C1CCCCC1` has an IC50 of 0.71 µM. Compound `O=c1c2cc(Cl)ccc2oc2nc3n(c(=O)c12)CCCS3` has an IC50 of 3 µM. `COc1cccc(NC(=O)c2ccc(Cn3cc([N+](=O)[O-])cn3)o2)c1` was tested, and the IC50 was 7.57 µM. With `Nc1nc2ccccc2n1C(=O)c1ccc(F)cc1` the IC50 was 13.2 µM (inactive). For `Clc1ccc2c(c1)C(N1CCNCC1)Cc1ccccc1S2` (stereo not drawn), the IC50 was 15.2 µM (inactive). Work on `c1cncc(-c2noc(CC3CCCCC3)n2)c1` yielded an IC50 of 1.25 µM. With `CCOC(=O)CCNC(=O)c1ccc2nc(C3CCCCC3)oc2c1` the IC50 was 28.8 µM (inactive). For `COC(=O)COc1ccc(S(=O)(=O)N2CCCCCC2)cc1`, the IC50 was 4.19 µM. `Cc1ccc2[nH]c(C)c(CCNC(=O)c3cc4cc([N+](=O)[O-])ccc4oc3=O)c2c1` gave an IC50 of 9.15 µM. In the case of `O=C(N/N=C/c1ccc[nH]1)c1cccnc1`, the IC50 is reported as 26.7 µM (inactive). In the case of `O=C(c1ccc(Br)o1)N1CCC(Cc2ccccc2)CC1`, the IC50 is reported as 3.77 µM. `CN(C)CC/C=C1/c2ccc(F)cc2Sc2ccc(Cl)cc21` gave an IC50 of 8.11 µM. In the case of `CCOc1cc(-c2nnc(NC(=O)c3ccco3)o2)cc(OCC)c1OCC`, the IC50 is reported as 21.6 µM (inactive). `O=C(OCC(=O)N1CCN(c2ccccc2)CC1)c1cnc(Cl)c(Cl)c1` gave an IC50 of 4.72 µM. `O=C(N/N=C/C=C/c1cccc([N+](=O)[O-])c1)c1ccncc1` was tested, and the IC50 was 24.8 µM (inactive). Work on `O=C(CCC1CCCC1)c1c(O)c2ccccc2oc1=O` yielded an IC50 of 1.93 µM. With `CC1CCc2c(sc3nc(CSc4ncn[nH]4)[nH]c(=O)c23)C1` (stereo not drawn) the IC50 was 14.4 µM (inactive). In the case of `CCOC(=O)COc1ccc(C2CC(C)=NN2c2ccccc2)cc1` (stereo not drawn), the IC50 is reported as 2.55 µM. With `O=C(N/N=C/c1cccs1)c1cncc(Br)c1` the IC50 was 4.85 µM. For `CCOC(=O)c1sc(NC(=O)CCN2CC(C)OC(C)C2)c(C(=O)OCC)c1C` (stereo not drawn), the IC50 was 21.8 µM (inactive). With `O=C(N/N=C/c1ccc[nH]1)c1ccc(Cl)cc1` the IC50 was 3.88 µM. In the case of `Cc1cc(C)c(C(=O)COC(=O)c2ccc([N+](=O)[O-])o2)cc1C`, the IC50 is reported as 0.93 µM. With `O=C(COc1ccc2ccccc2c1)N1CCCC1` the IC50 was 14.7 µM (inactive). For `CC(=O)c1ccc(NC(=O)CCc2ccc(C)o2)cc1`, the IC50 was 25.8 µM (inactive). In the case of `CCCOC(=O)c1cc(-c2ccc(C=O)o2)ccc1Cl`, the IC50 is reported as 4.94 µM. In the case of `O=C(N/N=C/c1ccc([N+](=O)[O-])o1)c1sc2ccccc2c1Cl`, the IC50 is reported as 2.9 µM. In the case of `Cc1[nH]nc2c1C(c1ccc(OC(=O)c3ccco3)cc1)C(C#N)=C(N)O2` (stereo not drawn), the IC50 is reported as 6.69 µM. For `CCc1ccc(N2C(=O)NC(=O)/C(=C\C=C\c3ccco3)C2=O)cc1`, the IC50 was 10.9 µM (inactive). Compound `O=C(N/N=C/c1ccc(Br)s1)c1ccncc1` has an IC50 of 0.47 µM. `COc1cc(/C=C2/C(=O)NN(c3cccc(F)c3)C2=O)ccc1OC(=O)c1ccco1` showed an IC50 of 5.04 µM. In the case of `O=C(c1ccc(Cl)cc1)c1nnc(-c2ccncc2)o1`, the IC50 is reported as 3.32 µM. For `Cc1ccc(CO/N=C/c2c(O)cc(C)oc2=O)cc1`, the IC50 was 16.6 µM (inactive). In the case of `O=C(NCCSc1ccccc1)c1ccc(Br)cc1`, the IC50 is reported as 32.1 µM (inactive).
